According to PubChem BioAssay (NCI):
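Briefly, cells in 96-well plates were exposed to five compound concentrations for 48 h, and endpoints were estimated by linear interpolation. Abbreviation: GI50, concentration required for 50% inhibition of growth. TGI denotes the concentration required for complete inhibition of growth.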

Experiments:
Experiment in all cases: inhibition of tumour cell growth, NCI panel, 48 h
[1] = system: 786-0 renal
[2] = system: A498 renal
[3] = system: A549 NSCLC
[4] = system: ACHN renal
[5] = system: BT-549 breast
[6] = system: CAKI-1 renal
[7] = system: CCRF-CEM leukemia
[8] = system: COLO 205 colon
[9] = system: DU-145 prostate
[10] = system: EKVX NSCLC
[11] = system: HCC-2998 colon
[12] = system: HCT-116 colon
[13] = system: HCT-15 colon
[14] = system: HL-60(TB) leukemia
[15] = system: HOP-92 NSCLC
[16] = system: HS 578T breast
[17] = system: HT29 colon
[18] = system: IGROV1 ovarian
[19] = system: K-562 leukemia
[20] = system: KM12 colon
[21] = system: LOX IMVI melanoma
[22] = system: M14 melanoma
[23] = system: MALME-3M melanoma
[24] = system: MCF7 breast
[25] = system: MDA-MB-231 breast
[26] = system: MDA-MB-435
[27] = system: MOLT-4 leukemia
[28] = system: NCI-H226 lung
[29] = system: NCI-H23 lung
[30] = system: NCI-H460 lung
[31] = system: NCI-H522 lung
[32] = system: NCI/ADR-RES ovarian
[33] = system: OVCAR-3 ovarian
[34] = system: OVCAR-4 ovarian
[35] = system: OVCAR-5 ovarian
[36] = system: OVCAR-8 ovarian
[37] = system: PC-3 prostate
[38] = system: RPMI-8226 leukemia
[39] = system: RXF 393 renal
[40] = system: SF-268 CNS
[41] = system: SF-295 CNS
[42] = system: SF-539 CNS
[43] = system: SK-MEL-2 melanoma
[44] = system: SK-MEL-28 melanoma
[45] = system: SK-MEL-5 melanoma
[46] = system: SK-OV-3 ovarian
[47] = system: SN12C renal
[48] = system: SNB-19 CNS
[49] = system: SNB-75 CNS
[50] = system: SR leukemia
[51] = system: SW-620 colon
[52] = system: T-47D breast
[53] = system: TK-10 renal
[54] = system: U251 CNS
[55] = system: UACC-257 melanoma
[56] = system: UACC-62 melanoma
[57] = system: UO-31 renal

COc1cc(N=Nc2ccc(O)c3ncccc23)c2ncccc2c1
GI50 [1]: 3.43 µM
TGI [1]: 24.2 µM
GI50 [2]: 24.2 µM
TGI [2]: 93.5 µM
GI50 [3]: 8.04 µM
TGI [3]: > 100 µM
GI50 [4]: 2.3 µM
TGI [4]: 14.2 µM
GI50 [5]: 4.31 µM
TGI [5]: > 100 µM
GI50 [6]: 1.83 µM
TGI [6]: > 100 µM
GI50 [7]: 0.459 µM
TGI [7]: > 100 µM
GI50 [8]: 5.65 µM
TGI [8]: > 100 µM
GI50 [9]: 4.06 µM
TGI [9]: > 100 µM
GI50 [10]: 4.08 µM
TGI [10]: > 100 µM
GI50 [11]: 3.65 µM
TGI [11]: > 100 µM
GI50 [12]: 2.56 µM
TGI [12]: > 100 µM
GI50 [13]: 0.923 µM
TGI [13]: > 100 µM
GI50 [14]: 2.47 µM
TGI [14]: 9.16 µM
GI50 [15]: 1.97 µM
TGI [15]: > 100 µM
GI50 [16]: 4.67 µM
TGI [16]: > 100 µM
GI50 [17]: 6.65 µM
TGI [17]: > 100 µM
GI50 [18]: 3.67 µM
TGI [18]: > 100 µM
GI50 [19]: 3.44 µM
TGI [19]: > 100 µM
GI50 [20]: 4.21 µM
TGI [20]: > 100 µM
GI50 [21]: 2.13 µM
TGI [21]: > 100 µM
GI50 [22]: 2.66 µM
TGI [22]: > 100 µM
GI50 [23]: 4.03 µM
TGI [23]: 33.7 µM
GI50 [24]: 2.18 µM
TGI [24]: > 100 µM
GI50 [25]: 3.16 µM
TGI [25]: > 100 µM
GI50 [26]: 4.64 µM
TGI [26]: > 100 µM
GI50 [27]: 3.5 µM
TGI [27]: > 100 µM
GI50 [28]: 6.07 µM
TGI [28]: > 100 µM
GI50 [29]: 3.75 µM
TGI [29]: > 100 µM
GI50 [30]: 3.13 µM
TGI [30]: > 100 µM
GI50 [31]: 4.26 µM
TGI [31]: > 100 µM
GI50 [32]: 1.02 µM
TGI [32]: 15.5 µM
GI50 [33]: 4.58 µM
TGI [33]: > 100 µM
GI50 [34]: 1.68 µM
TGI [34]: > 100 µM
GI50 [35]: 7.3 µM
TGI [35]: > 100 µM
GI50 [36]: 3.73 µM
TGI [36]: > 100 µM
GI50 [37]: 2.84 µM
TGI [37]: > 100 µM
GI50 [38]: 2.97 µM
TGI [38]: > 100 µM
GI50 [39]: 2.72 µM
TGI [39]: 28.2 µM
GI50 [40]: 2.81 µM
TGI [40]: > 100 µM
GI50 [41]: 18.5 µM
TGI [41]: > 100 µM
GI50 [42]: 2.95 µM
TGI [42]: 14 µM
GI50 [43]: 8.4 µM
TGI [43]: > 100 µM
GI50 [44]: 4.06 µM
TGI [44]: > 100 µM
GI50 [45]: 2.09 µM
TGI [45]: 13.3 µM
GI50 [46]: 5.57 µM
TGI [46]: > 100 µM
GI50 [47]: 4.45 µM
TGI [47]: > 100 µM
GI50 [48]: 4.11 µM
TGI [48]: > 100 µM
GI50 [49]: 4.53 µM
TGI [49]: > 100 µM
GI50 [50]: 2.2 µM
TGI [50]: > 100 µM
GI50 [51]: 3.86 µM
TGI [51]: > 100 µM
GI50 [52]: 3.23 µM
TGI [52]: > 100 µM
GI50 [53]: 9.81 µM
TGI [53]: > 100 µM
GI50 [54]: 3.43 µM
TGI [54]: > 100 µM
GI50 [55]: 10.9 µM
TGI [55]: > 100 µM
GI50 [56]: 2.4 µM
TGI [56]: 7.68 µM
GI50 [57]: 2.56 µM
TGI [57]: 25.3 µM
